Laboratory results taken from patent US20210369720A1, “SYNERGISTIC COMPOSITION HAVING NEUROPROTECTIVE PROPERTIES AND METHODS OF USE THEREOF” (Rutgers, The State University of New Jersey, priority 2018, published 2021).

Experiments:
[1] = system: Syn^Tg mice; experiment: Nesting behavior, Syn^Tg mice; assay type: in vivo; conditions: EHT 12 mg/kg/day in chow and/or caffeine 50 mg/kg/day in drinking water from weaning until six months of age, vs untreated Syn^Tg mice
Excerpt: (§1) Thy1-α-synuclein transgenic mice (Syn^Tg) on BDF1 background overexpressing human wild-type α-synuclein under the control of the Thy1 promoter were maintained by mating heterozygous transgenic females with WT BDF1 males (Rockenstein E, et al. (2002) Differential neuropathological alterations in transgenic mice expressing alpha-synuclein from the platelet-derived growth factor and Thy-1 promoters. J Neurosci Res 68(5):568-578). BDF1 mice (mixed C57BL/6-DBA/2) were generated every three months by mating female C57BL/6 (The Jackson Laboratory) and male DBA/2 mice (Charles River). Experiments were performed with male transgenic mice and their WT littermates. […] Wild-type littermates received regular water and control chow. […] At two months of age, mice were inoculated with α-Syn PFF unilaterally in the striatum. These treatments continued throughout the experiment until animals were sacrificed. Mice were weighed and their food and water intake was quantified weekly. Animals were housed 2-5/cage in an AAALAC approved facility in a temperature- and humidity-controlled environment under a 12-hour light/dark cycle and were maintained on a diet of lab chow and water ad libitum. […]

[2] = system: MAP2; experiment: Immunofluorescence staining of MAP2 in the cortex, Syn^Tg mice; assay type: in vivo; conditions: EHT 12 mg/kg/day and/or caffeine 50 mg/kg/day until six months of age
Excerpt: as §1

[3] = system: c-fos; experiment: Immunohistochemical staining of c-fos in the hippocampus, Syn^Tg mice; assay type: in vivo; conditions: EHT 12 mg/kg/day and/or caffeine 50 mg/kg/day until six months of age
Excerpt: as §1, with “weekly.” for “weekly. Animals were housed 2-5/cage in an AAALAC approved facility in a temperature- and humidity-controlled environment under a 12-hour light/dark cycle and were maintained on a diet of lab chow and water ad libitum.”
Vectastain elite ABC kit (Vector Laboratories, Burlingame, Calif.) and 3,3′-diaminobenzidine (Sigma-Aldrich) were used for amplifying and color development. […] For other stains, the whole microscopic field was analyzed. For p-α-Syn stains in the cortex, four matching regions in each of two sections per animal were counted.

[4] = system: α-Syn PFF inoculated WT mice; experiment: Rotarod, α-Syn PFF inoculated WT mice; assay type: in vivo; conditions: EHT 12 mg/kg/day in diet and/or caffeine 50 mg/kg/day in drinking water from weaning, 6 months post-inoculation
Excerpt: as §1

[5] = system: Tyrosine hydroxylase (TH); experiment: Striatal TH staining, α-Syn PFF inoculated WT mice; assay type: in vivo; conditions: EHT 12 mg/kg/day and/or caffeine 50 mg/kg/day, vs untreated α-Syn PFF inoculated mice
Excerpt: as §1

[6] = system: SH-SY5Y cells; experiment: Cytotoxicity of α-Syn PFF by propidium iodide (PI) exclusion in SH-SY5Y cells; assay type: cell-based, Human; conditions: SH-SY5Y cells challenged with mouse α-Syn PFF for seven days; vs untreated α-Syn PFF-challenged cells (2.5 fold increase of PI positive cells)
[7] = system: Syn^Tg mice; conditions: cited from earlier work

Compound: CCCCCCCCCCCCCCCCCCCC(=O)NCCc1c[nH]c2ccc(O)cc12 [EHT, eicosanoyl-5-hydroxytryptamide]
- nesting behavior [1]: did not improve performance
- MAP2 in the cortex (neuritic integrity) [2]: did not improve this profile
- c-fos immunoreactivity in the hippocampus [3]: failed to increase c-fos immunoreactivity significantly
- performance on the rotarod [4]: improved performance
- TH staining of dopaminergic terminals in the striatum (ipsilateral and contralateral) [5]: non-significant increase
- cytotoxicity of α-Syn PFF, number of PI positive cells (cell viability) [6]: modestly protected
- molecular, histochemical, and behavioral benefits ([7]; EHT 12 mg/kg/day in chow, nine months of treatment): partial amelioration
- PP2A methylation in brain tissue lysates ([7]; EHT alone for nine months, dose dependent, more evident at 120 mg/kg/day): modulated PP2A methylation
- accumulation of p-α-Syn ([7]; EHT alone for nine months, more evident at 120 mg/kg/day): reduced the accumulation of p-α-Syn
